The results in this text go back to paper PMC9321043, “Synthesis, Structure–Activity Relationships, and Parasitological Profiling of Brussonol Derivatives as New Plasmodium falciparum Inhibitors” (Pharmaceuticals, 2022).

Like-named read-outs stand apart in the source and are kept apart here.

One experiment concerns P. falciparum K1 strain. Briefly: Resistance assessment, K1 strain. The experiment is classed as cell-based. The settings on record: Plasmodium falciparum.
In a further experiment the test system is P. falciparum 3D7 strain. Briefly: Chemical rescue assay with isopentenyl pyrophosphate (IPP). The format is cell-based, Plasmodium falciparum. To be noted: for IC50: Plasmodium falciparum, 3D7 strain, 72 h. From the text:
To evaluate whether brussonol interfered with the biosynthesis of […] in malaria parasites, we conducted a chemical rescue assay. The assay identifies compounds that interfere with the metabolism of isoprenoids by “rescuing” their growth inhibition through the supplementation of isopentenyl pyrophosphate (IPP), a key precursor of isoprenoid biosynthesis. […] Thus, the chemical rescue assay compares the IC50 values of the tested compound in the presence and absence of IPP. We used fosmidomycin (FOS) as a positive control for growth inhibition rescuing upon supplementation of IPP (Figure 7b). In this assay, compounds that interfere in the metabolism of isoprenoids show a significant increment in the IC50 value in the presence of IPP (Figure 7b).
The chemical rescue assay was carried out as described by Yeh and DeRisi (2011). This assay consists in verifying the IC50 value of the tested compounds with and without the isopentenyl pyrophosphate (IPP), purchased from Isoprenoids, LC (Florida, USA). Briefly, 3D7 strain ring stages were cultured in 96-well plates, with 0.5% parasitemia and 2% hematocrit. Non-parasitized erythrocytes and parasitized erythrocytes without drugs were used as growth controls, and fosmidomycin (FOS) was used as a positive control for chemical rescue. Serial dilutions of brussonol and FOS were prepared in duplicates. In the same 96-well plate, brussonol and FOS had their antiplasmodial activity evaluated with and without supplementation of 200 µM IPP. Plates were incubated for 72 h and analyzed by the SYBR Green I assay.

Another experiment concerns P. falciparum. In words: Speed-of-action assay. The experiment is classed as cell-based, Plasmodium falciparum. The protocol:
The speed-of-action assay assesses the inhibitory activity of the tested compounds after 24, 48, and 72 h of drug exposure. […] Moreover, to confirm the speed-of-action, the morphological development of the parasite in parallel with the IC50 assessment was verified. The parasites in the negative control wells developed according to the expected timeline (Figure 5a). […] Brussonol caused parasite death within the first 24 h of incubation as observed for artesunate (Figure 5a).
In this method, three 96-well plates were prepared by adding 180 µL of the parasite’s inoculum with 0.5% parasitemia and 2% hematocrit. A serial dilution of the compounds was added to each plate; the starting concentration for brussonol was 6× IC50, while for artesunate and pyrimethamine (fast- and slow-acting controls, respectively) were 10× IC50. In addition, a positive and negative control, which corresponded to parasite cultures with no addition of inhibitor and non-parasitized erythrocytes, respectively, were used for the parasite’s control growth. Each plate was treated for a different period (24, 48, or 72 h), and the first two plates were washed twice with fresh medium to remove the inhibitor, followed by incubation of 48 and 24 h, respectively. […] A statistical analysis using a one-way ANOVA test was done to compare each time point using GraphPad Prism version 8.0.1 for Windows, GraphPad Software, San Diego, California USA, www.graphpad.com, accessed on 1 February 2022. In parallel, the morphological development of the parasite under the compounds’ pressure was assessed by adding the compounds tested at the highest concentration evaluated. Blood smears of each well were made and stained at time points 0, 24, 48, and 72 h.

Experiment [1] deals with P. falciparum 3D7^r_MMV848 strain. Briefly: Resistance assessment, 3D7r-MMV848 strain. The format is cell-based. The settings on record: Plasmodium falciparum.
For a further experiment, the system named is P. knowlesi. Briefly: In vitro evaluation against P. knowlesi, NanoLuc luminescence. The format is cell-based. To be noted: Plasmodium knowlesi, 40 h. The procedure: The P. falciparum strains were cultivated in human blood cells (hRBC) O^+, while P. knowlesi was cultivated in rhesus red blood cells (rRBC) as described. P. falciparum complete RPMI (consisting of RPMI-1640, supplemented with 0.2% NaHCO3, 25 mM HEPES (pH 7.4), 11 mM D-glucose, 10 mg/L hypoxanthine, 25 mg/L gentamicin, and 0.5% (m/v) AlbuMAX II). The parasitemias of these cultures were maintained below 10% with 2.5% hematocrit. P. knowlesi complete RPMI (consisting of RPMI-1640 supplemented with 25 mM HEPES, […] hypoxanthine, 0.26% NaHCO3, 10 mg/L gentamicin, and 1% Albumax II). This culture was maintained with RBCs up to 5% hematocrit. The culture medium was changed daily, and all cultures were maintained under a 90% N2/5% CO2/5% O2 gas mixture at 37 °C. All compounds were purchased from Sigma-Aldrich (Cotia, Brazil).
Blood-stage P. knowlesi cultures were diluted to 0.5% parasitemia and brought to 2% hematocrit for growth in 96-well plates containing the desired drug concentration series (200 µL of culture/well). […] Parasite growth in the plates was measured by luminescence (NanoLuc method). […] The plates were then incubated for 3 min at room temperature and the luminescence was assessed using a plate luminometer (Molecular Devices, San Jose, CA, USA) with 1 s integration time. Luminescence readings were normalized to values from control wells containing no drug. […]

The next experiment concerns P. falciparum Dd2 strain. In words: Resistance assessment, Dd2 strain. The experiment is classed as cell-based. The settings on record: Plasmodium falciparum.

Turning to `CC(C)c1cc2c(c(O)c1O)C[C@@]13CCCC(C)(C)[C@@H]1C[C@@H]2O3` [Compound 1, brussonol], the IC50 with P. falciparum K1 strain was found to be 6.6 ± 0.1 µM; in the experiment with P. falciparum 3D7 strain (with 200 µM IPP, read-out: IC50 in the presence of IPP) it was 13.9 ± 0.2 µM; in the experiment with P. falciparum 3D7 strain (without IPP, read-out: IC50 in the absence of IPP) it was 18 ± 1 µM; in experiment [1] it was 12 ± 3 µM; in the experiment with P. knowlesi it was 20 ± 4 µM; in the experiment with P. falciparum Dd2 strain it was 7 ± 2 µM. Besides, the “reversal of growth inhibition by IPP supplementation” value in the experiment on P. falciparum 3D7 strain (200 µM IPP) was “did not reverse the growth inhibition”. In the experiment on P. falciparum (IC50 compared after 24, 48 and 72 h of drug exposure), the speed of action result is “fast-acting in vitro inhibition”. In addition, the “time of parasite death (morphological development, pyknotic nuclei)” value in the experiment with P. falciparum (highest concentration evaluated, Giemsa smears at 0, 24, 48, 72 h) is listed as no more than 24 h.
